Laboratory results as given in US8436024B2, “2-pyridone compounds” (Astrazeneca AB, priority 2009, dated 2013).

How the values were obtained:
[1] = molecular target: T1, Human Neutrophil Elastase (HNE) (Homo sapiens, UniProt P08246); experiment: Human Neutrophil Elastase Quenched-FRET Assay; assay type: biochemical; conditions: geomean of measured IC50 values; HNE 0.17 nM, substrate MeOSuc-AAPV-AMC 100 μM, 90 min at room temperature; read-out: Inhibition of Human Neutrophil Elastase IC50
T1 sequence (P08246 30-267): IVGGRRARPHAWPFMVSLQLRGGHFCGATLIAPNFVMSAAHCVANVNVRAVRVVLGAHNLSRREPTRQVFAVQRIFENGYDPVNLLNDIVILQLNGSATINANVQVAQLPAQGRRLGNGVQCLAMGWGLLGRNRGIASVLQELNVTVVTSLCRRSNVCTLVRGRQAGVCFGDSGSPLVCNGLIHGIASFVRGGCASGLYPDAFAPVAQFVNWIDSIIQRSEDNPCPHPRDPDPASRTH
Method: Human Neutrophil Elastase Quenched-FRET Assay The assay uses Human Neutrophil Elastase (HNE) purified from serum (Calbiochem art. 324681; Ref Baugh, R. J. et al., 1976, Biochemistry. 15, 836-841). HNE was stored in 50 mM sodium acetate (NaOAc), 500 mM sodium chloride (NaCl), pH 5.5 with added 50% glycerol at −20° C. The protease substrate used was Elastase Substrate V Fluorogenic, MeOSuc-AAPV-AMC (Calbiochem art. 324740; Ref Castillo, M. J. et al., 1979, Anal. Biochem. 99, 53-64). The substrate was stored in dimethyl sulphoxide (DMSO) at −20° C. The assay additions were as follows: Test compounds and controls were added to black 384-well flat-bottom plates (Greiner 781076), 0.2 μL in 100% DMSO, followed by 10 μL HNE in assay buffer with 0.01% Triton (trade mark) X-100 detergent. The assay buffer constitution was: 100 mM Tris(hydroxymethyl)aminomethane (TRIS) (pH 7.5) and 500 mM NaCl. The enzyme and the compounds were incubated at room temperature for 15 minutes. Then 10 μL substrate in assay buffer was added. The assay was incubated for 90 minutes at room temperature. The concentrations of HNE enzyme and substrate during the incubation were 0.17 nM and 100 μM, respectively. The assay was then stopped by adding 20 μl stop solution (140 mM acetic acid, 200 mM sodium monochloroacetate, 60 mM sodium acetate, pH 4.3). Fluorescence was measured on a Wallac EnVision 2102 Multilabel Reader instrument at settings: Excitation 380 nm, Emission 460 nm. IC50 values were determined using Xlfit curve fitting using model 203. […] Specimen results are shown in the following Table in which the IC50 value represents the geomean of the IC50 values measured for a particular compound and “n” refers to the number of times the compound was tested: […]

[2] = Humidity interaction (hygroscopicity determination) by Gravimetrical Vapour Sorption; assay type: physicochemical; conditions: for hygroscopicity: relative change in weight between 0% RH and 80% RH, second cycle, benzenesulfonate
Method: Run time was 6.2 minutes; post time was 2.3 min; and detection was at 235 nm. • (v) In general, the course of reactions was followed by TLC and reaction times are given for illustration only. • (vi) Yields are given for illustration only and are not necessarily those which can be obtained by diligent process development; preparations were repeated if more material was required. • (vii) Chemical symbols have their usual meanings; SI units and symbols are used. • (viii) Solvent ratios are given in volume: volume (v/v) terms. • (ix) Mass spectra (MS) (loop) were recorded on a Micromass Platform LC equipped with HP 1100 detector; unless otherwise stated the mass ion quoted is (MH^+). • (x) X-ray Powder Diffraction patterns were collected on a PANalytical X′Pert PRO MPD theta-theta system, equipped with a focusing beam Johansson monochromator and an X′Celerator detector, using CuKα1 radiation (1.5406 Å, 45 kV, 40 mA). The diffraction pattern was collected between 2 and 40 °2θ in a continuous scan mode. The scan speed was 0.86°/min. with an increment of 0.016°. Samples were mounted on single silicon crystal wafer mounts. • (xi) Humidity Interaction (hygroscopicity determination): The gravimetric responses of test samples to changes in humidity were investigated using a TGA 5000 (TA Instruments) Gravimetrical Vapour Sorption (GVS). The relative humidity (RH) was raised in steps of 10% to 90% RH and lowered back to 0% RH in two cycles. Each level of RH was held until the equilibrium condition (sample weight change<0.005 wt % per 10 minutes) was reached. 3-5 mg of the test sample was placed in the cup and evaluated. The hygroscopicity was calculated as the relative change in weight of the sample between 0% RH at the start of the second cycle and 80% RH during the increase of humidity in the second cycle. […]

| IC50 [1] [nM] | other results | SMILES |
| --- | --- | --- |
| 0.971 |  | Cc1c(-c2ccnn2-c2ccc(C#N)cc2)cc(C(=O)NCCC[N+]2(C)CCCC2)c(=O)n1-c1cccc(C(F)(F)F)c1 [Example 5, 1-{3-[({5-[1-(4-cyanophenyl)-1H-pyrazol-5-yl]-6-methyl-2-oxo-1-[3-(trifluoromethyl)phenyl]-1,2-dihydropyridin-3-yl}carbonyl)amino]propyl}-1-methylpyrrolidinium iodide] |
| 0.949 |  | Cc1c(-c2ccnn2-c2ccc(C#N)cc2)cc(C(=O)NCC[N+]2(C)CCCC2)c(=O)n1-c1cccc(C(F)(F)F)c1 [Example 1, 1-{2-[({5-[1-(4-cyanophenyl)-1H-pyrazol-5-yl]-6-methyl-2-oxo-1-[3-(trifluoromethyl)phenyl]-1,2-dihydropyridin-3-yl}carbonyl)amino]ethyl}-1-methylpyrrolidinium acetate] |
| 0.771 |  | Cc1c(-c2ccnn2-c2ccc(C#N)cc2)cc(C(=O)NCCCC[N+]2(C)CCCC2)c(=O)n1-c1cccc(C(F)(F)F)c1 [Example 2, 1-{-4-[({5-[1-(4-cyanophenyl)-1H-pyrazol-5-yl]-6-methyl-2-oxo-1-[3-(trifluoromethyl)phenyl]-1,2-dihydropyridin-3-yl}carbonyl)amino]butyl}-1-methylpyrrolidinium acetate] |
|  | hygroscopicity ([2]; listed as Form A): 0.8 % (w/w) | Cc1c(-c2ccnn2-c2ccc(C#N)cc2)cc(C(=O)NCCC[N+](C)(C)C)c(=O)n1-c1cccc(C(F)(F)F)c1.O=S(=O)([O-])c1ccccc1 [Example 9, 3-(5-(1-(4-cyanophenyl)-1H-pyrazol-5-yl)-6-methyl-2-oxo-1-(3-(trifluoromethyl)phenyl)-1,2-dihydropyridine-3-carboxamido)-N,N,N-trimethylpropan-1-aminium benzenesulfonate] |
|  | hygroscopicity (in words) ([2]; description of the crystalline modification): low hygroscopicity; hygroscopicity ([2]; listed as Form B): 0.4 % (w/w) | Cc1c(-c2ccnn2-c2ccc(C#N)cc2)cc(C(=O)NCCC[N+](C)(C)C)c(=O)n1-c1cccc(C(F)(F)F)c1.O=S(=O)([O-])c1ccccc1 [Example 10, 3-(5-(1-(4-cyanophenyl)-1H-pyrazol-5-yl)-6-methyl-2-oxo-1-(3-(trifluoromethyl)phenyl)-1,2-dihydropyridine-3-carboxamido)-N,N,N-trimethylpropan-1-aminium benzenesulfonate] |
| 1.1 |  | Cc1c(-c2ccnn2-c2ccc(C#N)cc2)cc(C(=O)NCCC[N+](C)(C)C)c(=O)n1-c1cccc(C(F)(F)F)c1 [Example 9a, 3-(5-(1-(4-cyanophenyl)-1H-pyrazol-5-yl)-6-methyl-2-oxo-1-(3-(trifluoromethyl)phenyl)-1,2-dihydropyridine-3-carboxamido)-N,N,N-trimethylpropan-1-aminium benzenesulfonate] |
| 0.934 |  | Cc1c(-c2ccnn2-c2ccc(C#N)cc2)cc(C(=O)NCCCC[N+](C)(C)C)c(=O)n1-c1cccc(C(F)(F)F)c1 [Example 4, 4-[({5-[1-(4-cyanophenyl)-1H-pyrazol-5-yl]-6-methyl-2-oxo-1-[3-(trifluoromethyl)phenyl]-1,2-dihydropyridin-3-yl}carbonyl)amino]-N,N,N-trimethylbutan-1-aminium iodide] |
| 1.05 |  | Cc1c(-c2ccnn2-c2ccc(C#N)cc2)cc(C(=O)NCC[N+](C)(C)C)c(=O)n1-c1cccc(C(F)(F)F)c1 [Example 3, 2-[({5-[1-(4-cyanophenyl)-1H-pyrazol-5-yl]-6-methyl-2-oxo-1-[3-(trifluoromethyl)phenyl]-1,2-dihydropyridin-3-yl}carbonyl)amino]-N,N,N-trimethylethanaminium acetate] |
| 3.48 |  | Cc1c(-c2ccnn2-c2ccc(C#N)cc2)nc(C(=O)NCCC[N+](C)(C)C)c(=O)n1-c1cccc(C(F)(F)F)c1 [Example 6, 3-[({6-[1-(4-cyanophenyl)-1H-pyrazol-5-yl]-5-methyl-3-oxo-4-[3-(trifluoromethyl)phenyl]-3,4-dihydropyrazin-2-yl}carbonyl)amino]-N,N,N-trimethylpropan-1-aminium iodide] |
| 0.57 |  | Cc1c(-c2ccnn2-c2ccc(C#N)cc2)cc(C(=O)NCCC[N+](C)(C)C)c(=O)n1-c1cccc(C(F)(F)F)c1 [Example 7, 3-(5-(1-(4-cyanophenyl)-1H-pyrazol-5-yl)-6-methyl-2-oxo-1-(3-(trifluoromethyl)phenyl)-1,2-dihydropyridine-3-carboxamido)-N,N,N-trimethylpropan-1-aminium bromide] |
